Assay [1] deals with FGFR1 kinase domain recombinant protein (Homo sapiens, UniProt P11362). The experiment in a line: FGFR1 enzyme activity at molecular level (ELISA, Poly(Glu,Tyr) 4:1 substrate).
Method: (§1) The plate was placed at 37° C. for 12-16 hours. The liquid in the well was discarded, the plate was washed, and the panel was washed three times with 200 μL/well of T-PBS (PBS containing 0.1% Tween-20) for 5 minutes each time.
(§2) 50 μL of ATP solution diluted with reaction buffer (50 mM HEPES pH 7.4, 50 mM MgCl2, 0.5 mM MnCl2, 0.2 mM Na3VO4, 1 mM DTT) was added to each well to a final concentration of 5 μM. The compound was diluted to a suitable concentration in DMSO, 1 μL/well or containing the corresponding concentration of DMSO (negative control well), and the FGFR1, FGFR4 kinase domain recombinant protein diluted in 49 μL of reaction buffer was added to initiate the reaction. Two control wells without ATP were required for each experiment. The reaction was carried out for 1 hour at 37° C. on a shaker (100 rpm). The plate was washed three times with T-PBS. Primary antibody, PY99 dilution was added at 100 μL/well and shaken at 37° C. for 0.5 hour. The plate was washed three times with T-PBS. Secondary antibody, horseradish peroxidase-labeled goat anti-mouse IgG dilution was added at 100 μL/well, and shaken at 37° C. for 0.5 hour. […] (Ultrasound was required for the dissolution of OPD, and the chromogenic solution needed to be prepared when used). 2 M H2SO4 was added at 50 μL/well to quench the reaction and a tunable wavelength microplate reader SPECTRA MAX 190 was used at a wavelength of 490 nm.
(§3) The inhibition rate of the sample was obtained by the following formula:
(§4) The IC50 value was obtained by four-parameter regression using the software attached to the microplate reader.
Assay [2] addresses FGFR4 kinase domain recombinant protein (Homo sapiens, UniProt P22455). As to the kind of experiment: FGFR4 enzyme activity at molecular level (ELISA, Poly(Glu,Tyr) 4:1 substrate).
Method: as §1, §2, §3, §4

Structures are written as SMILES.

Sequence of FGFR1 kinase domain recombinant protein (P11362 478-767 limits assumed): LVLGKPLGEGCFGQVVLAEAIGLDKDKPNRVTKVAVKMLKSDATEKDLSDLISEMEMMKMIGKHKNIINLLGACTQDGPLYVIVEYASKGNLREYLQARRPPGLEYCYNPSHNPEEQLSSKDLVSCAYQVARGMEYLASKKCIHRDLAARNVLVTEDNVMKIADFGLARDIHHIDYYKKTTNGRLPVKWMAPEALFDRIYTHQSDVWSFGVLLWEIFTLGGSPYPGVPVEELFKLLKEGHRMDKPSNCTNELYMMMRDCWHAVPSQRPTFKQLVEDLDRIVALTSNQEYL
Sequence of FGFR4 kinase domain recombinant protein (P22455 467-755 limits assumed): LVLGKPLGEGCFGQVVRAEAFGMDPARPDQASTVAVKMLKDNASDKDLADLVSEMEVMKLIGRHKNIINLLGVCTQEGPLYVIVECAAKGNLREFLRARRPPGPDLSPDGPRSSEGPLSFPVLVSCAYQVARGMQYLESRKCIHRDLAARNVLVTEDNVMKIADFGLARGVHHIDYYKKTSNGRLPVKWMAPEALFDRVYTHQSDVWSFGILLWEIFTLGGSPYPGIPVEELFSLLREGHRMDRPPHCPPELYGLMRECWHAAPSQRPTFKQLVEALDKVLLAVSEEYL

As for `CCN(C)C/C=C/C(=O)N1CCC(n2cc(-c3cc4cc(C)cc(OC)c4s3)c3c(N)ncnc32)C1` (stereo not drawn) [NO. 5, (E) 1-(3-(4-amino-5-(7-methoxy-5-methylbenzothiophene-2-yl)-7H-pyrrole[2,3-d]pyrimidine-7-yl)pyrrolidine-1-yl)-4-(ethyl(methy)amino)but-2-en-1-one], the concentration for half-maximal inhibition (IC50) in assay [1] was < 10 nM; in assay [2], 10 to 100 nM.

As to `C=C(CN1CCN(C)CC1)C(=O)N1CC[C@H](n2cc(-c3cc4cc(C)cc(OC)c4s3)c3c(N)ncnc32)C1` [NO. 49, (S) 1-(3-(4-amino-5-(7-methoxy-5-methylbenzothiophene-2-yl)-7H-pyrrole[2,3-d]pyrimidine-7-yl)pyrrolidine-1-yl)-2-((4-methylpiperazin-1-yl)-methylene)prop-2-en-1-one], the half-maximal inhibitory concentration (IC50) in assay [1] was 10 to 100 nM; in assay [2], < 10 nM.

As to `C=C(CN(CC)CC)C(=O)N1CC[C@H](n2cc(-c3cc4cc(C)cc(OC)c4s3)c3c(N)ncnc32)C1` [NO. 46, (S) 1-(3-(4-amino-5-(7-methoxy-5-methylbenzothiophene-2-yl)-7H-pyrrole[2,3-d]pyrimidine-7-yl)pyrrolidine-1-yl)-2-((diethylamino)methylene)prop-2-en-1-one], the half-inhibitory concentration (IC50) in assay [1] is 10 to 100 nM; in assay [2], < 10 nM.

Turning to `C=CC(=O)N1CCC(n2cc(-c3cc4cc(C(=O)O)cc(OC)c4s3)c3c(N)ncnc32)C1` (stereo not drawn) [NO. 85, 2-(7-(1-acryloylpyrrolidine-3-yl)-4-amino-7H-pyrrole[2,3-d]pyrimidine-5-yl)-7-methoxybenzothiophene-5-formic acid], the concentration for half-maximal inhibition (IC50) in assay [1] and in assay [2] was > 100 nM in each case.

For the compound `C=C(CN1CCCC1)C(=O)N1CC(n2cc(-c3cc4cc(C)cc(OC)c4s3)c3c(N)ncnc32)C1` [NO. 44, 1-(3-(4-amino-5-(7-methoxy-5-methylbenzothiophene-2-yl)-7H-pyrrole[2,3-d]pyrimidine-7-yl)azetidine-1-yl)-2-(pyrrolidine-1-methylene)prop-2-en-1-one], the 50% inhibitory concentration (IC50) in assay [1] and in assay [2] was < 10 nM each time.

As to `C=C(CN1CCOCC1)C(=O)N1CC(n2nc(-c3cc4cc(C)cc(OC)c4s3)c3c(N)ncnc32)C1` [NO. 55, 1-(3-(4-amino-3-(7-methoxy-5-methylbenzothiophene-2-yl)-1H-pyrazole[3,4-d]pyrimidin-yl)azetidine-1-yl)-2-(morpholinemethylene)prop-2-en-1-one], the IC50 in assay [1] and in assay [2] was < 10 nM each time.

In the case of `COc1cc(C)cc2cc(-c3cn(C4CCN(C(=O)/C=C/CN(C)C(C)C)C4)c4ncnc(N)c34)sc12` (stereo not drawn) [NO. 6, (E)1-(3-(4-amino-5-(7-methoxy-5-methylbenzothiophene-2-yl)-7H-pyrrole[2,3-d]pyrimidine-7-yl)pyrrolidine-1-yl)-4-(isopropyl(methyl)amino)but-2-en-1-one], the results for the IC50 in assay [1] and in assay [2] were < 10 nM and 10 to 100 nM, respectively.

Consider `C=CC(=O)N1CCC(n2cc(-c3ccc4c(N)n[nH]c4c3)c3c(N)ncnc32)C1` (stereo not drawn) [NO. 80, 1-(3-(4-amino-5-(3-amino-1H-indazol-6-yl)-7H-pyrrole[2,3-d]pyrimidine-7-yl)pyrrolidine-1-yl)prop-2-en-1-one], for which the IC50 in assay [1] and in assay [2] was > 100 nM in each case.

As for `COc1cc(C)cc2cc(-c3cn(C4CCN(C(=O)/C=C/CN5CCC(O)CC5)C4)c4ncnc(N)c34)sc12` (stereo not drawn) [NO. 77, (E)-1-(3-(4-amino-5-(7-methoxy-5-methylbenzothiophene-2-yl)-7H-pyrrole[2,3-d]pyrimidine-7-yl)pyrrolidine-1-yl)-4-(4-hydroxypiperidine-1-yl)but-2-en-1-one], the values for the half-inhibitory concentration (IC50) in assay [1] and in assay [2] were < 10 nM and 10 to 100 nM, respectively.

`C=C(CN1CCOCC1)C(=O)N1CC[C@H](n2nc(-c3cc4cc(C)cc(OC)c4s3)c3c(N)ncnc32)C1` [NO. 54, (S) 1-(3-(4-amino-3-(7-methoxy-5-methylbenzothiophene-2-yl)-1H-pyrazole[3,4-d]pyrimidine-1-yl)pyrrolidine-1-yl)-2-(morpholinemethylene)prop-2-en-1-one]: the IC50 in assay [1] is < 10 nM; in assay [2], 10 to 100 nM.

Regarding `COc1cc(C)cc2cc(-c3cn(C4CN(C(=O)/C=C/CN5CCCC5)C4)c4ncnc(N)c34)sc12` [NO. 17], the IC50 is < 10 nM in assay [1] and 10 to 100 nM in assay [2].

As for `C=CC(=O)Nc1cccc(Cn2nc(-c3cc4cc(C)cc(OC)c4s3)c3c(N)ncnc32)c1` [NO. 78, N-(3-((4-amino-3-(7-methoxy-5-methylbenzothiophene-2-yl)-1H-pyrazole[3,4-d]pyrimidine-1-yl)methyl)phenyl)acrylamide], the IC50 is < 10 nM in assay [1] and 10 to 100 nM in assay [2].

As to `COc1cc(C)cc2cc(-c3cn(C4CCN(C(=O)/C=C/CN5CCCCC5)C4)c4ncnc(N)c34)sc12` (stereo not drawn) [NO. 8, (E) 1-(3-(4-amino-5-(7-methoxy-5-methylbenzothiophene-2-yl)-7H-pyrrole[2,3-d]pyrimidine-7-yl)pyrrolidine-1-yl)-4-(piperidine-1-yl)but-2-en-1-one], the IC50 in assay [1] was < 10 nM; in assay [2] it was 10 to 100 nM.

In the case of `COc1cc(C)cc2cc(-c3cn(C4CCNC4)c4ncnc(N)c34)sc12` (stereo not drawn) [NO. 9, 5-(7-methoxy-5-methylbenzothiophene-2-yl)-7-(pyrrolidine-3-yl)-7H-pyrrole[2,3-d]pyrimidine-4-amine], the IC50 is 10 to 100 nM in assay [1] and > 100 nM in assay [2].

As to `C=CC(=O)N1CCC(n2cc(-c3ccncc3)c3c(N)ncnc32)C1` (stereo not drawn) [NO. 82, 1-(3-(4-amino-5-(pyridine-4-yl)-7H-pyrrole[2,3-d]pyrimidine-7-yl)pyrrolidine-1-yl)prop-2-en-1-one], the IC50 in assay [1] and in assay [2] was > 100 nM each time.

On to `C=CC(=O)N1CC[C@H](n2nc(-c3cc4cc(C)cc(OC)c4s3)c3c(N)ncnc32)C1` [NO. 56, (S) 1-(3-(4-amino-3-(7-methoxy-5-methylbenzothiophene-2-yl)-1H-pyrazole[3,4-d]pyrimidine-1-yl)pyrrolidine-1-yl)prop-2-en-1-one], for which the IC50 in assay [1] and in assay [2] was < 10 nM in each case.

Turning to `COc1cc(C)cc2cc(-c3cn(C4CN(C(=O)/C=C/CN(C)C)C4)c4ncnc(N)c34)sc12` [NO. 19, (E)-1-(3-(4-amino-5-(7-methoxy-5-methylbenzothiophene-2-yl)-7H-pyrrole[2,3-d]pyrimidine-7-yl)azetidin-1-yl)-4-(dimethylamino)but-2-en-1-one], the half-inhibitory concentration (IC50) in assay [1] was < 10 nM; in assay [2] it was 10 to 100 nM.

`COc1cc(C)cc2cc(-c3cn(C4CCN(C(=O)/C=C/CN5CCC(F)C5)C4)c4ncnc(N)c34)sc12` (stereo not drawn) [NO. 69, (E)-1-(3-(4-amino-5-(7-methoxy-5-methylbenzothiophene-2-yl)-7H-pyrrole[2,3-d]pyrimidine-7-yl)pyrrolidine-1-yl)-4-(3-fluoropyrrolidin-1-yl)but-2-en-1-one]: the IC50 in assay [1] was < 10 nM; in assay [2], 10 to 100 nM.

For the origin of these results see US20190367520A1, “NEW COMPOUND HAVING FGFR INHIBITORY ACTIVITY AND PREPARATION AND APPLICATION THEREOF” (SHANGHAI INSTITUTE OF MATERIA MEDICA, CHINESE ACADEMY OF …, priority 2016, published 2019).
